Molecular target: T1, KivRFp (2-ketoisovalerate reductase) (Fusarium proliferatum, UniProt I3VQI5)
T1 construct: full length, 452 residues, 52 kDa, N-terminal His-tag (pET28a), codon-optimised synthetic gene, E. coli BL21(DE3), Ni-NTA purified
Assay: spectrophotometric NADPH oxidation at […] nm
Type: biochemical
Settings: 0.7 mM 2-Kiv, 50 mM sodium phosphate pH 7.0, 35 °C

T1 sequence (I3VQI5 entry or part of it): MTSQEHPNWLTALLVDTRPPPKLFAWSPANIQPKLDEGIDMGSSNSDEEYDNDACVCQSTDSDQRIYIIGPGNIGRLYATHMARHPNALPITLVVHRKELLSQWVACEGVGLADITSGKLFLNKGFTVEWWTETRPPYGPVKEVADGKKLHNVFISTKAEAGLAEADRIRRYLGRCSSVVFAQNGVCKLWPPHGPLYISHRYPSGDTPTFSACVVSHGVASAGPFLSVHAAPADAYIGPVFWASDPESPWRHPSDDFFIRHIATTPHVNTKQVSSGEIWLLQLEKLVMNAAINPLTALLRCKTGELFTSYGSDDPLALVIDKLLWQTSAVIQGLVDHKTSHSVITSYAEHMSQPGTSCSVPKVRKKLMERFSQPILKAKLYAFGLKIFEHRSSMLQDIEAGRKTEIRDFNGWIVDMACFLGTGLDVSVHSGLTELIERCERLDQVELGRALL

Compound	spectrophotometric NADPH oxidation at 340 nm (0.29 mM NADPH)	spectrophotometric NADPH oxidation at 340 nm
CC(C)C(=O)C(=O)O [2-Kiv]	The enzyme exhibited the highest activity towards 2-Kiv as substrate	–
NC(=O)C1=CN([C@@H]2O[C@H](COP(=O)(O)OP(=O)(O)OC[C@H]3O[C@@H](n4cnc5c(N)ncnc54)[C@H](OP(=O)(O)O)[C@@H]3O)[C@@H](O)[C@H]2O)C=CC1 [NADPH]	–	KivRFp showed higher coenzyme specificity with respect to NADPH than NADH

From PMC3478992, “Cloning and characterization of a novel 2-ketoisovalerate reductase from the beauvericin producer Fusarium proliferatum LF061” (BMC Biotechnology, 2012)
